Literature values as cited in patent publication US20130178535A1, “Acetaminophen Composition” (B. Braun Melsungen AG, priority 2010, published 2013).

Which “pH at which breakdown (hydrolysis) in aqueous solution is minimal” value does the source give for `CC(=O)Nc1ccc(O)cc1` [paracetamol, N-(4-hydroxyphenyl)ethanamide] here?
Its value is ~6.
